pEC50, pIC50: −log10 of the molar value.
Tests used:
human PD-L1 = human PD-L1 (Homo sapiens (Human), UniProt Q9NZQ7); assay: T cell activation luciferase reporter cell culture system (T Cell Activation Assay); type: cell-based; details: luciferase reporter assay; PD-L1 aAPC/CHO-K1 cells with PD-1 effector Jurkat T cells
[1] = target: PD-L1 His protein / PD-1 Fc protein (Homo sapiens (Human), UniProt Q9NZQ7); assay: HTRF Assay (PD-1/PD-L1 interaction); type: binding; details: PD-L1 His 6 nM, PD-1 Fc 6 nM
Sequence of PD-L1 His protein / PD-1 Fc protein (Q9NZQ7 19-238): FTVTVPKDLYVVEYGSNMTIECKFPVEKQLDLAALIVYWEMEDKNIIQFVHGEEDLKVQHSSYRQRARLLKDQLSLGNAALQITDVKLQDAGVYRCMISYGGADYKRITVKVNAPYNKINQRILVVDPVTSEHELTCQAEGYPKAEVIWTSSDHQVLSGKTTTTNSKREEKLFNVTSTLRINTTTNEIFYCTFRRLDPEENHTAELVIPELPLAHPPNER

Sequence of human PD-L1 (Q9NZQ7 19-290): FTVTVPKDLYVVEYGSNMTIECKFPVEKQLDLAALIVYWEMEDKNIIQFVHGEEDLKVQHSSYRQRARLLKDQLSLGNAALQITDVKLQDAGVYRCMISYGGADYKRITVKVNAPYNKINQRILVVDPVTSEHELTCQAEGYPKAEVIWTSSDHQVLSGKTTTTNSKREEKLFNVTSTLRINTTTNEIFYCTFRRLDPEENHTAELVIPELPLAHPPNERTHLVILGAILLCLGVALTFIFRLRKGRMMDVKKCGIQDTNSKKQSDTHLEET

SMILES	pEC50 (human PD-L1)	pIC50 [1]
CCOc1cc(-c2nccc(-c3cccc(-c4ccc(CNC5CCN(C(C)=O)CC5)c(OC)n4)c3Cl)c2Cl)cn2nc(CN[C@H]3C[C@](C)(O)C3)nc12 [Example 584, 1-(4-(((6-(2-Chloro-3-(3-chloro-2-(8-ethoxy-2-((((1r,3r)-3-hydroxy-3-methylcyclobutyl)amino)methyl)-[1,2,4]triazolo[1,5-a]pyridin-6-yl)pyridin-4-yl)phenyl)-2-methoxypyridin-3-yl)methyl)amino)piperidin-1-yl)ethan-1-one]	≤ 5.00	8.66
COc1cc(-c2nccc(-c3cccc(-c4ccc(CNCCCF)c(OC)n4)c3C(F)(F)F)c2Cl)ccc1CNCCCF [Example 587, N-((6-(3-(3-Chloro-2-(4-(((3-fluoropropyl)amino)methyl)-3-methoxyphenyl)pyridin-4-yl)-2-(trifluoromethyl)phenyl)-2-methoxypyridin-3-yl)methyl)-3-fluoropropan-1-amine]	≤ 5.00	6.80
COc1cc(-c2nccc(-c3cccc(-c4ccc(CNC56CC(CO)(C5)C6)c(OC)n4)c3Cl)c2Cl)ccc1CNC12CC(CO)(C1)C2 [Example 591, (3-(((6-(2-chloro-3-(3-chloro-2-(4-(((3-(hydroxymethyl)bicyclo[1.1.1]pentan-1-yl)amino)methyl)-3-methoxyphenyl)pyridin-4-yl)phenyl)-2-methoxypyridin-3-yl)methyl)amino)bicyclo[1.1.1]pentan-1-yl)methanol]	6.33	7.61
COc1cc(-c2ncnc(-c3cccc(-c4ccc(CN[C@H]5C[C@H](O)C5)c(OC)n4)c3Cl)c2Cl)ccc1CN[C@H]1C[C@H](O)C1 [Example 593, (1r,3r)-3-(((6-(2-Chloro-3-(5-chloro-6-(4-((((1r,3r)-3-hydroxycyclobutyl)amino)methyl)-3-methoxyphenyl)pyrimidin-4-yl)phenyl)-2-methoxypyridin-3-yl)methyl)amino)cyclobutan-1-ol]	6.98	9.80
COc1nc(-c2cccc(-c3ccnc(-c4cc(OC)c5nc(CN[C@H]6CC[C@H](O)CC6)nn5c4)c3Cl)c2Cl)ccc1CNC1CCN(C(C)=O)CC1 [Example 595, 1-(4-(((6-(2-Chloro-3-(3-chloro-2-(2-((((1r,4r)-4-hydroxycyclohexyl)amino)methyl)-8-methoxy-[1,2,4]triazolo[1,5-a]pyridin-6-yl)pyridin-4-yl)phenyl)-2-methoxypyridin-3-yl)methyl)amino)piperidin-1-yl)ethan-1-one]	6.68	9.42
COc1cc(-c2nccc(-c3cccc(-c4ccc([C@H](C)NC5CCN(C(C)=O)CC5)c(OC)n4)c3Cl)c2Cl)ccc1[C@H](C)NC1CCN(C(C)=O)CC1 [Example 599, 1-(4-(((S)-1-(6-(3-(2-(4-((S)-1-((1-Acetylpiperidin-4-yl)amino)ethyl)-3-methoxyphenyl)-3-chloropyridin-4-yl)-2-chlorophenyl)-2-methoxypyridin-3-yl)ethyl)amino)piperidin-1-yl)ethan-1-one]	≤ 5.00	9.00
COCC(=O)N1CCC(NCc2ccc(-c3nccc(-c4cccc(-c5ccc(CNC6CCN(C(=O)COC)CC6)c(OC)n5)c4C(F)(F)F)c3Cl)cc2OC)CC1 [Example 602, 1-(4-(((6-(3-(3-Chloro-2-(3-methoxy-4-(((1-(2-methoxyacetyl)piperidin-4-yl)amino)methyl)phenyl)pyridin-4-yl)-2-(trifluoromethyl)phenyl)-2-methoxypyridin-3-yl)methyl)amino)piperidin-1-yl)-2-methoxyethan-1-one]	≤ 5.00	7.38
COc1cc(-c2nccc(-c3cccc(-c4ccc(CNC[C@@H]5CCC(=O)N5)c(OC)n4)c3C(F)(F)F)c2Cl)ccc1CNC[C@@H]1CCC(=O)N1 [Example 610, (S)-5-((((6-(3-(3-Chloro-2-(3-methoxy-4-(((((S)-5-oxopyrrolidin-2-yl)methyl)amino)methyl)phenyl)pyridin-4-yl)-2-(trifluoromethyl)phenyl)-2-methoxypyridin-3-yl)methyl)amino)methyl)pyrrolidin-2-one]	5.68	8.82
COc1nc(-c2cccc(-c3ccnc(-c4cc(OC)c5nc(CN6CC(C)(O)C6)nn5c4)c3Cl)c2Cl)ccc1CNC1CCN(C(C)=O)CC1 [Example 637, 1-(4-(((6-(2-chloro-3-(3-chloro-2-(2-((3-hydroxy-3-methylazetidin-1-yl)methyl)-8-methoxy-[1,2,4]triazolo[1,5-a]pyridin-6-yl)pyridin-4-yl)phenyl)-2-methoxypyridin-3-yl)methyl)amino)piperidin-1-yl)ethan-1-one]	6.93	9.54
COc1nc(-c2cccc(-c3ccnc(-c4cc(OC)c5nc(CNC[C@@H](C)O)nn5c4)c3Cl)c2Cl)ccc1CNC1CCN(C(C)=O)CC1 [Example 638, (R)-1-(4-(((6-(2-Chloro-3-(3-chloro-2-(2-(((2-hydroxypropyl)amino)methyl)-8-methoxy-[1,2,4]triazolo[1,5-a]pyridin-6-yl)pyridin-4-yl)phenyl)-2-methoxypyridin-3-yl)methyl)amino)piperidin-1-yl)ethan-1-one]	7.02	9.70
COc1cc(-c2ncnc(-c3cccc(-c4ccc(CNCc5cnco5)c(OC)n4)c3Cl)c2Cl)ccc1CNCc1cnco1 [Example 643, 1-(6-(2-Chloro-3-(5-chloro-6-(3-methoxy-4-(((oxazol-5-ylmethyl)amino)methyl)phenyl)pyrimidin-4-yl)phenyl)-2-methoxypyridin-3-yl)-N-(oxazol-5-ylmethyl)methanamine]	5.82	8.38
COc1cc(-c2nccc(-c3cccc(NC(=O)c4ccc(CNC5CCN(C(C)=O)CC5)cn4)c3C)c2Cl)ccc1CNC1CCN(C(C)=O)CC1 [Example 645, 5-(((1-Acetylpiperidin-4-yl)amino)methyl)-N-(3-(2-(4-(((1-acetylpiperidin-4-yl)amino)methyl)-3-methoxyphenyl)-3-chloropyridin-4-yl)-2-methylphenyl)picolinamide]	5.85	9.36
COc1cc(-c2nccc(-c3cccc(NC(=O)c4ccc(CNC5CCOCC5)cn4)c3C)c2Cl)ccc1CNC1CCOCC1 [Example 646, N-(3-(3-Chloro-2-(3-methoxy-4-(((tetrahydro-2H-pyran-4-yl)amino)methyl)phenyl)pyridin-4-yl)-2-methylphenyl)-5-(((tetrahydro-2H-pyran-4-yl)amino)methyl)picolinamide]	5.57	9.32
COc1cc(-c2nccc(-c3cccc(NC(=O)c4ccc(CNCCO)cn4)c3C)c2Cl)ccc1CNCCO [Example 648, N-(3-(3-Chloro-2-(4-(((2-hydroxyethyl)amino)methyl)-3-methoxyphenyl)pyridin-4-yl)-2-methylphenyl)-5-(((2-hydroxyethyl)amino)methyl)picolinamide]	6.85	10.30
COc1cc(-c2nccc(-c3cccc(NC(=O)c4ccc(CNC[C@H](C)O)cn4)c3C)c2Cl)ccc1CNC[C@H](C)O [Example 650, N-(3-(3-Chloro-2-(4-((((S)-2-hydroxypropyl)amino)methyl)-3-methoxyphenyl)pyridin-4-yl)-2-methylphenyl)-5-((((S)-2-hydroxypropyl)amino)methyl)picolinamide]	6.84	10.00
COc1cc(-c2nccc(-c3cccc(-c4ccc(CNC5CC6(C5)CN(C(C)=O)C6)c(OC)n4)c3C(F)(F)F)c2Cl)ccc1CNC1CC2(C1)CN(C(C)=O)C2 (stereo not drawn) [Example 651, 1-(6-(((6-(3-(2-(4-(((2-Acetyl-2-azaspiro[3.3]heptan-6-yl)amino)methyl)-3-methoxyphenyl)-3-chloropyridin-4-yl)-2-(trifluoromethyl)phenyl)-2-methoxypyridin-3-yl)methyl)amino)-2-azaspiro[3.3]heptan-2-yl)ethan-1-one]	≤ 5.00	8.39
COc1cc(-c2nccc(-c3cccc(-c4ccc(CNC5CCOCC5)c(OC)n4)c3C#N)c2Cl)ccc1CNC1CCOCC1 [Example 652, 2-(3-Chloro-2-(3-methoxy-4-(((tetrahydro-2H-pyran-4-yl)amino)methyl)phenyl)pyridin-4-yl)-6-(6-methoxy-5-(((tetrahydro-2H-pyran-4-yl)amino)methyl)pyridin-2-yl)benzonitrile]	6.64	10.15
COc1cc(-c2nccc(-c3cccc(-c4ccc(CN5CCN(C(C)=O)CC5)c(OC)n4)c3Cl)c2Cl)ccc1CN1CCN(C(C)=O)CC1 [Example 655, 1-(4-((6-(3-(2-(4-((4-Acetylpiperazin-1-yl)methyl)-3-methoxyphenyl)-3-chloropyridin-4-yl)-2-chlorophenyl)-2-methoxypyridin-3-yl)methyl)piperazin-1-yl)ethan-1-one]	≤ 5.00	8.02
COc1cc(-c2nccc(-c3cccc(NC(=O)c4cn(C)c(=O)n(C)c4=O)c3Cl)c2Cl)ccc1CNC1CCN(C(C)=O)CC1 [Example 656, N-(3-(2-(4-(((1-Acetylpiperidin-4-yl)amino)methyl)-3-methoxyphenyl)-3-chloropyridin-4-yl)-2-chlorophenyl)-1,3-dimethyl-2,4-dioxo-1,2,3,4-tetrahydropyrimidine-5-carboxamide]	6.23	9.80
COc1cc(-c2nccc(-c3cccc(NC(=O)c4cn(C)c(=O)n(C)c4=O)c3Cl)c2Cl)ccc1CNC[C@@H]1CCC(=O)N1 [Example 657, (S)—N-(2-Chloro-3-(3-chloro-2-(3-methoxy-4-((((5-oxopyrrolidin-2-yl)methyl)amino)methyl)phenyl)pyridin-4-yl)phenyl)-1,3-dimethyl-2,4-dioxo-1,2,3,4-tetrahydropyrimidine-5-carboxamide]	7.48	9.85
COc1cc(-c2nccc(-c3cccc(NC(=O)c4cn(C)c(=O)n(C)c4=O)c3Cl)c2Cl)ccc1CN1CC2(CNC(=O)C2)C1 [Example 658, N-(2-Chloro-3-(3-chloro-2-(3-methoxy-4-((7-oxo-2,6-diazaspiro[3.4]octan-2-yl)methyl)phenyl)pyridin-4-yl)phenyl)-1,3-dimethyl-2,4-dioxo-1,2,3,4-tetrahydropyrimidine-5-carboxamide]	6.31	9.60

Source: patent publication US20240246964A1 (Arbutus Biopharma Corporation, priority 2021, published 2024)
